{"source": "paper PMC5762315", "about": "“Inhibition of polo-like kinase 4 (PLK4): a new therapeutic option for rhabdoid tumors and pediatric medulloblastoma” (Oncotarget, 2017)", "test_in_all_cases": "LanthaScreen Eu Kinase Binding Assay, panel of 486 biochemical kinase assays", "key": {"various kinases [1]": {"target": "T1, various kinases (Homo sapiens, UniProt O75385)", "T1 sequence (O75385 1-1050)": "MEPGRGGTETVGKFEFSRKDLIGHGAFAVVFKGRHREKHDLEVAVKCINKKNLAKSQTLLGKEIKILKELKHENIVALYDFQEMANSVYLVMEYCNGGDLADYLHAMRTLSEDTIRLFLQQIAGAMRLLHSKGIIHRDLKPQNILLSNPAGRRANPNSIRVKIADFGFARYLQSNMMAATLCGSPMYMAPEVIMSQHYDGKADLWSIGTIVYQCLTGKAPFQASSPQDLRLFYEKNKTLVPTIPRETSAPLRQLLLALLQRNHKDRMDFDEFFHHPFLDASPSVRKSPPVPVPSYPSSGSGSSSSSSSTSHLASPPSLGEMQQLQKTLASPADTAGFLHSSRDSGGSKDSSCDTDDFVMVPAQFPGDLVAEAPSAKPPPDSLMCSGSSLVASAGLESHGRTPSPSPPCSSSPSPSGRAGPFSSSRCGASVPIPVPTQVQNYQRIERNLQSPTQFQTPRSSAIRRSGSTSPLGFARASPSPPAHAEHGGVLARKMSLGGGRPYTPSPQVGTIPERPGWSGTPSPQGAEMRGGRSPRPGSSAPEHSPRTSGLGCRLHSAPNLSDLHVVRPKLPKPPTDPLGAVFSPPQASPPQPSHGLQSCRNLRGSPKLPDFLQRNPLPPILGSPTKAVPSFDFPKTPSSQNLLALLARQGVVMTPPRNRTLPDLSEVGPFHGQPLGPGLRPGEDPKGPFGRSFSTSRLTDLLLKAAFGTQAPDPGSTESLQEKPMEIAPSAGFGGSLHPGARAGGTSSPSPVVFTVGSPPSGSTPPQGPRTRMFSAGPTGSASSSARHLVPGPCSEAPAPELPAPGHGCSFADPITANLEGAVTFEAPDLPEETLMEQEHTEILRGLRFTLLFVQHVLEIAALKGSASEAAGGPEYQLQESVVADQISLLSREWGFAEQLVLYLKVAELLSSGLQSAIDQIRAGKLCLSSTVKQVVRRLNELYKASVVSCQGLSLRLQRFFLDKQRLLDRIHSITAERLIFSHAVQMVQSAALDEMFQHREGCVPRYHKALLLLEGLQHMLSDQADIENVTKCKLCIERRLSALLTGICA", "settings": "kinase ULK1; LanthaScreen Binding"}, "various kinases [2]": {"target": "various kinases (Homo sapiens, UniProt O94921)", "sequence (O94921 whole entry)": "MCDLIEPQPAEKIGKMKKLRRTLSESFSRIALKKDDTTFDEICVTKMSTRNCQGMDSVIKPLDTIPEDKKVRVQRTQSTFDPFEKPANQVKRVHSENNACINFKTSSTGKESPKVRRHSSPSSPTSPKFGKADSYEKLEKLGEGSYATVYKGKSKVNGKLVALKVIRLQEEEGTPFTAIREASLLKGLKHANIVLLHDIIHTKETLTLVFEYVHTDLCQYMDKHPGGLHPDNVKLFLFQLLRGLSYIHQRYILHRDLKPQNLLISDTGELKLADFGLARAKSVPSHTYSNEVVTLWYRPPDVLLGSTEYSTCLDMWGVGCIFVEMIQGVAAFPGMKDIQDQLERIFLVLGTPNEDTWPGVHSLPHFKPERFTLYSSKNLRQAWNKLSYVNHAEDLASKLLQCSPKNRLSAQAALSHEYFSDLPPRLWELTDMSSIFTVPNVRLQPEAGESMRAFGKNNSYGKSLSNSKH", "settings": "CDK14 (PFTK1)/cyclin Y"}, "various kinases [3]": {"target": "various kinases (Homo sapiens, UniProt P00519, H396P)", "settings": "ABL1 H396P"}, "various kinases [4]": {"target": "various kinases (Homo sapiens, UniProt P04049, Y340D/Y341D)", "sequence (P04049 whole entry Y340D/Y341D)": "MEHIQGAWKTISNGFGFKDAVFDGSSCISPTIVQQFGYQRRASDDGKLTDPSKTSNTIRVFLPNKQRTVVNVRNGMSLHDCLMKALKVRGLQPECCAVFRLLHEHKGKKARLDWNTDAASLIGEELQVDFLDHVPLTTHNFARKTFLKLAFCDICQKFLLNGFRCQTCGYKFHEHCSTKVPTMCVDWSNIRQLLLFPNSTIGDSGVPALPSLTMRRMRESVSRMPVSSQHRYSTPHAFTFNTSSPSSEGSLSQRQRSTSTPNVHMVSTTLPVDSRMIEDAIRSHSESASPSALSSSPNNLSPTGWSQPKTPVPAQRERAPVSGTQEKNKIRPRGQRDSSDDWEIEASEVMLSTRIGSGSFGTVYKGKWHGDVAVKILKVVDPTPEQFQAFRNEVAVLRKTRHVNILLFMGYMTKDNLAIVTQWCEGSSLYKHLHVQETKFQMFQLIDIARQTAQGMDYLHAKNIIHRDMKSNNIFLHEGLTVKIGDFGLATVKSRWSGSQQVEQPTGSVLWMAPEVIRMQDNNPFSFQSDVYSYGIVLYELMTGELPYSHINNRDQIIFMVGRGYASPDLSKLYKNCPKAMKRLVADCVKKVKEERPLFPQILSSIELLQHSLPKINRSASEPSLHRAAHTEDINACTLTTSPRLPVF", "settings": "kinase RAF1 (cRAF) Y340D Y341D; LanthaScreen Binding"}, "various kinases [5]": {"target": "various kinases (Homo sapiens, UniProt P07949, M918T)", "sequence (P07949 29-1114 M918T)": "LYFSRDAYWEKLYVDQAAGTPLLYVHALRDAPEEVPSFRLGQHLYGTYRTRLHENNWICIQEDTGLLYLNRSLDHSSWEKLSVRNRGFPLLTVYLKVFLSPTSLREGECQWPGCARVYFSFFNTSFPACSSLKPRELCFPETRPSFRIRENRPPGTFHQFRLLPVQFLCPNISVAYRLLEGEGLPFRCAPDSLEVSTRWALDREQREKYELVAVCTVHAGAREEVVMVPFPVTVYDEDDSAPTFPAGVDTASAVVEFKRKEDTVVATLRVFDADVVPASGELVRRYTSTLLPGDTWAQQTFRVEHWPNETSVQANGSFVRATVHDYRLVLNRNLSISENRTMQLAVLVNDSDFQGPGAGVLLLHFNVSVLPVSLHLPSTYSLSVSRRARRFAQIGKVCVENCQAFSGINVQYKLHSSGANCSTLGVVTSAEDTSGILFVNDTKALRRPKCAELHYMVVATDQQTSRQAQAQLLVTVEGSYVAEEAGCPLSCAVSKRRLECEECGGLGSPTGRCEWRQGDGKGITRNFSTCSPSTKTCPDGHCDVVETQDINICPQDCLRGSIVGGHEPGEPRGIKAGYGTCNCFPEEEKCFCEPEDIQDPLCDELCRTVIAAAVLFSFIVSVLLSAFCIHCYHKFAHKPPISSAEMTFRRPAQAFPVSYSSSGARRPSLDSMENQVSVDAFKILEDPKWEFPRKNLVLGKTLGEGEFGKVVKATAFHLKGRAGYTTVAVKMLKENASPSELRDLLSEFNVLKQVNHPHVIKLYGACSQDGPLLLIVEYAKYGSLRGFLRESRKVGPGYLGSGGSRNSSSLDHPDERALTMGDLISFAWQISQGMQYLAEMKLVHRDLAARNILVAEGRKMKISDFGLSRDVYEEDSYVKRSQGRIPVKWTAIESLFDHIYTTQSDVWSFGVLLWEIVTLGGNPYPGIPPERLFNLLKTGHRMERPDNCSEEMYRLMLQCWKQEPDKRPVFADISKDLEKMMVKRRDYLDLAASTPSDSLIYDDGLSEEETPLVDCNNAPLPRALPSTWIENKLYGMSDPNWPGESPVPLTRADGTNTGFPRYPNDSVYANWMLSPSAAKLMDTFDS", "settings": "kinase RET M918T; LanthaScreen Binding"}, "various kinases [6]": {"target": "various kinases (Homo sapiens, UniProt P10721, D816V)", "settings": "KIT D816V"}, "various kinases [7]": {"target": "various kinases (Homo sapiens, UniProt P10721, Y823D)", "settings": "KIT Y823D"}, "various kinases [8]": {"target": "various kinases (Homo sapiens, UniProt P37023)", "sequence (P37023 22-503)": "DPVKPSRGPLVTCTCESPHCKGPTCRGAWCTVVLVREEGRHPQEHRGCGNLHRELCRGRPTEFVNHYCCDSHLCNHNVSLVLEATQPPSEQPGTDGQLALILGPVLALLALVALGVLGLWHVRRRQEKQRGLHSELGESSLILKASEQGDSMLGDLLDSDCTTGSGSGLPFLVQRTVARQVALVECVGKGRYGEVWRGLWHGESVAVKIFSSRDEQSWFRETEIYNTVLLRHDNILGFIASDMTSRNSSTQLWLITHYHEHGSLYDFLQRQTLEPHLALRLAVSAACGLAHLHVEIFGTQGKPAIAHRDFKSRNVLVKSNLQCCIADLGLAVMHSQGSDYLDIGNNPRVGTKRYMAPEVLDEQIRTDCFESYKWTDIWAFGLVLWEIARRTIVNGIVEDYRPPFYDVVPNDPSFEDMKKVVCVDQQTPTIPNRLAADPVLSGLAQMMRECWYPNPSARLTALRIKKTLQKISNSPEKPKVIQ", "settings": "ACVRL1 (ALK1)"}, "various kinases [9]": {"target": "various kinases (Homo sapiens, UniProt Q13163)", "settings": "MAP2K5 (MEK5)"}, "various kinases [10]": {"target": "various kinases (Homo sapiens, UniProt Q86UE8)", "sequence (Q86UE8 whole entry)": "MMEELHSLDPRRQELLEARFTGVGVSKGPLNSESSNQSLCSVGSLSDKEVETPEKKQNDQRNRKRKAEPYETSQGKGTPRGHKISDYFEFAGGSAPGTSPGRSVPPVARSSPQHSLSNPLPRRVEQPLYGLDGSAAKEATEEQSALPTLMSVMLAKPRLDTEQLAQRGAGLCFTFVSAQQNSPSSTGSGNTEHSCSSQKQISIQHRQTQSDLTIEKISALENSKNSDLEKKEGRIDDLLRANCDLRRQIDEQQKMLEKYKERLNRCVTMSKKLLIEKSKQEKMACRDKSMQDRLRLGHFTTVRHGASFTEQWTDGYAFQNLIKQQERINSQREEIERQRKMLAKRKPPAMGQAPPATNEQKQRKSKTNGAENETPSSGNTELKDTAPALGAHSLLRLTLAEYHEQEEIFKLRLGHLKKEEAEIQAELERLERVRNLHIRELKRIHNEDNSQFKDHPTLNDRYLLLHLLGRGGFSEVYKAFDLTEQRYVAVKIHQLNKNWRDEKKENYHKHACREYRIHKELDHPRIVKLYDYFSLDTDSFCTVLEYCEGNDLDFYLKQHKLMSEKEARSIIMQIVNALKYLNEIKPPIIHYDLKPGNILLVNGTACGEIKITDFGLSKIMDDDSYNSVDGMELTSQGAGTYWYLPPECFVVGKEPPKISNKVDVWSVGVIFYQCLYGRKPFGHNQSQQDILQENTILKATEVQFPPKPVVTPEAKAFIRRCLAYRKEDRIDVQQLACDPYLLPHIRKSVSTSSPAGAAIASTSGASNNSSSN", "settings": "kinase TLK2; LanthaScreen Binding"}, "various kinases [11]": {"target": "various kinases (Homo sapiens, UniProt Q9UBE8)", "settings": "NLK"}, "various kinases [12]": {"target": "T2, various kinases (Homo sapiens, UniProt Q9UEE5)", "T2 sequence (Q9UEE5 1-414)": "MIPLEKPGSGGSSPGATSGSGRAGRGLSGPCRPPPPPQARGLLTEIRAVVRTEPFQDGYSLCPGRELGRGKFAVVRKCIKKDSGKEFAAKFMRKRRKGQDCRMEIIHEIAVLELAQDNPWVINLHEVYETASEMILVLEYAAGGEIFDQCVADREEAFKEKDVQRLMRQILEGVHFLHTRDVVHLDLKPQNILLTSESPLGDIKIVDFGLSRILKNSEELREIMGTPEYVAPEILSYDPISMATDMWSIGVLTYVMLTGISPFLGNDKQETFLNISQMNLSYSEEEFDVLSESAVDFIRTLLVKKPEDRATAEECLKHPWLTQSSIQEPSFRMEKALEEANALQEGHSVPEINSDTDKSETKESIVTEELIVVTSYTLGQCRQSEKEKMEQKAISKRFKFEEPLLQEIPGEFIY", "settings": "kinase STK17A (DRAK1); LanthaScreen Binding"}, "various kinases [13]": {"target": "various kinases (Homo sapiens, UniProt Q9UM73, C1156Y)", "settings": "ALK C1156Y"}, "various kinases [14]": {"target": "various kinases (Homo sapiens, UniProt Q9Y2K2)", "sequence (Q9Y2K2 whole entry)": "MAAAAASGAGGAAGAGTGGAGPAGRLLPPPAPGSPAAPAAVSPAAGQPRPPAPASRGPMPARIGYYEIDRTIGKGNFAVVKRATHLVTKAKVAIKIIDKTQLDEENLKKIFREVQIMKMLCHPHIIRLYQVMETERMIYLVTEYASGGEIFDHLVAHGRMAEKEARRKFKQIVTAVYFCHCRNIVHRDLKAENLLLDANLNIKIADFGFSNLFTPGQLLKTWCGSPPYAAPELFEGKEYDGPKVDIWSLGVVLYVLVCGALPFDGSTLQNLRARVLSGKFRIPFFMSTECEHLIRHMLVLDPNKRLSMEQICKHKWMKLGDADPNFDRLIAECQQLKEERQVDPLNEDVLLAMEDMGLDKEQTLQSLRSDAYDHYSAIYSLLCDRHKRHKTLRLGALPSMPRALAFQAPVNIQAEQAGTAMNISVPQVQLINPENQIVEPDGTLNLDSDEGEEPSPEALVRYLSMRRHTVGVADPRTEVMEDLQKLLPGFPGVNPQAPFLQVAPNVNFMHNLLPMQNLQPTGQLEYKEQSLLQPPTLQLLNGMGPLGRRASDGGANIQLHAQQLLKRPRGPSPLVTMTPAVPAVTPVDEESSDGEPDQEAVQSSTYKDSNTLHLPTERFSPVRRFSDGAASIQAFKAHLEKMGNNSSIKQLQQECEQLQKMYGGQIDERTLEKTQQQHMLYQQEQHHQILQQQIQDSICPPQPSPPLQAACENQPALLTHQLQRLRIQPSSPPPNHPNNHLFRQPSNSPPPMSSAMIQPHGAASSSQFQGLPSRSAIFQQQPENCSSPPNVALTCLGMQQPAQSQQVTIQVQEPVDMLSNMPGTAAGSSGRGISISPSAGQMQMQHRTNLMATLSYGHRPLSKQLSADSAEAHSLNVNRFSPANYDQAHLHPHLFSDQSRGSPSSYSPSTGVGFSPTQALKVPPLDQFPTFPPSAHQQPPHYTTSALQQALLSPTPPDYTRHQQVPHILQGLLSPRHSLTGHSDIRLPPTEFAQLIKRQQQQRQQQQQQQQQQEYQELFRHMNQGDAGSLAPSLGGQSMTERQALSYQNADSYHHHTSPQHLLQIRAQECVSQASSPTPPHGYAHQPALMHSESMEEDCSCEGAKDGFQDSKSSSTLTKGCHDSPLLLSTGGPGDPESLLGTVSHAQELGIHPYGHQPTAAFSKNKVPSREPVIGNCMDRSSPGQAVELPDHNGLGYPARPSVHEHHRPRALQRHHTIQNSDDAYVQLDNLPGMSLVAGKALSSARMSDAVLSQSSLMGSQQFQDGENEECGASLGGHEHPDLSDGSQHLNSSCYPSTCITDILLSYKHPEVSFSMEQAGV", "settings": "kinase SIK3; LanthaScreen Binding"}}, "note": "Values joined by “and” are separate entries in the source; they are usually repeats but may differ in a detail not shown here. Equal entries are not always repeated.", "data": [{"smiles": "COc1ccc2c(c1)[C@]1(C[C@H]1c1ccc3c(/C=C/c4ccc(CN5C[C@@H](C)O[C@@H](C)C5)cc4)n[nH]c3c1)C(=O)N2", "note": "[CFI-400945]", "values": [{"measurement": "% Inhibition Average", "setting": "various kinases [1]", "value": 3, "unit": "%"}, {"measurement": "% Inhibition Duplicate #1", "setting": "various kinases [1]", "value": 4, "unit": "%"}, {"measurement": "% Inhibition Duplicate #2", "setting": "various kinases [1]", "value": 2, "unit": "%"}, {"measurement": "% Inhibition", "setting": "various kinases [2]", "value": "-4% and 2%"}, {"measurement": "% Inhibition", "setting": "various kinases [3]", "value": "72% and 73%"}, {"measurement": "% Inhibition Average", "setting": "various kinases [4]", "value": -3, "unit": "%"}, {"measurement": "% Inhibition Duplicate #1", "setting": "various kinases [4]", "value": -6, "unit": "%"}, {"measurement": "% Inhibition Duplicate #2", "setting": "various kinases [4]", "value": -1, "unit": "%"}, {"measurement": "% Inhibition Average", "setting": "various kinases [5]", "value": 27, "unit": "%"}, {"measurement": "% Inhibition Duplicate #1", "setting": "various kinases [5]", "value": 26, "unit": "%"}, {"measurement": "% Inhibition Duplicate #2", "setting": "various kinases [5]", "value": 28, "unit": "%"}, {"measurement": "% Inhibition", "setting": "various kinases [6]", "value": "-1% and 0%"}, {"measurement": "% Inhibition", "setting": "various kinases [7]", "value": "4% and -6%"}, {"measurement": "% Inhibition", "setting": "various kinases [8]", "value": "10% and 0%"}, {"measurement": "% Inhibition", "setting": "various kinases [9]", "value": 6, "unit": "%"}, {"measurement": "% Inhibition Average", "setting": "various kinases [10]", "value": 9, "unit": "%"}, {"measurement": "% Inhibition Duplicate #1", "setting": "various kinases [10]", "value": 14, "unit": "%"}, {"measurement": "% Inhibition Duplicate #2", "setting": "various kinases [10]", "value": 5, "unit": "%"}, {"measurement": "% Inhibition", "setting": "various kinases [11]", "value": "-9% and -6%"}, {"measurement": "% Inhibition Average", "setting": "various kinases [12]", "value": 19, "unit": "%"}, {"measurement": "% Inhibition Duplicate #1", "setting": "various kinases [12]", "value": 24, "unit": "%"}, {"measurement": "% Inhibition Duplicate #2", "setting": "various kinases [12]", "value": 13, "unit": "%"}, {"measurement": "% Inhibition", "setting": "various kinases [13]", "value": "47% and 51%"}, {"measurement": "% Inhibition Average", "setting": "various kinases [14]", "value": 5, "unit": "%"}, {"measurement": "% Inhibition Duplicate #1", "setting": "various kinases [14]", "value": 10, "unit": "%"}, {"measurement": "% Inhibition Duplicate #2", "setting": "various kinases [14]", "value": 1, "unit": "%"}]}]}
